Among the data in ChEMBL document CHEMBL1147315, “A new spermatostatic glycoside from the soft coral Sinularia crispa” (J Nat Prod, 1989) are Activity values, retold here.

For the assay, the system named is Spermatozoa. In words: Spermatostatic activity in rat cauda epididymal spermatozoa assessed as motility effect at 0.5 mg/mL for 30 mins by microscopic method. It is filed as functional, cell-based.

The source made the active and inactive calls. The calls are words filed in the database; no cut-off is given here.

Regarding `C=C(CC[C@@H](C)[C@H]1[C@@H](O)C[C@H]2[C@@H]3[C@@H](O)C=C4C[C@@H](O[C@@H]5O[C@@H](C)[C@@H](OC(C)=O)[C@@H](O)[C@@H]5O)CC[C@]4(C)[C@H]3CC[C@]12C)C(C)C`, the outcome was Active.
